Results on 11 compounds are retold here after publication PMC8313326, “Phytochemical Analysis and Evaluation of Biological Activity of Lawsonia inermis Seeds Related to Alzheimer's Disease” (Evidence-based Complementary and Alternative Medicine : eCAM, 2021).

Assay [1] in a line: Antioxidant activity by DPPH test. The conditions noted are these: 30 min, room temperature, dark, 517 nm. Background: DPPH is a stable violet radical that fades when it is reduced.
Method: Several concentrations of the test fraction in MeOH were prepared. Aliquots of different concentrations of the fraction (1 mL) were added to the DPPH methanolic solution (1.0 mL, 0.1 mM), and the mixtures were shaken vigorously and left for 30 min at room temperature in the dark.
In the same procedure, butylated hydroxyanisole (BHA) was used as the positive control. The DPPH radical scavenging activity of the fractions was expressed as IC50 (μg/mL), which is obtained from linear regression plot between concentrations of the test fractions and percent inhibitions.
For assay [2], the target named is T1, acetylcholinesterase (AChE, E.C. 3.1.1.7, Type V-S) (Electrophorus electricus, UniProt O42275).
T1 construct: Type V-S, lyophilized powder, from electric eel; purchased Sigma-Aldrich; host or cells: electric eel
Kind of assay: biochemical. An excerpt: (§1) Acetylcholinesterase (AChE, E.C. 3.1.1.7, Type V-S, lyophilized powder, from electric eel, 1000 units), butyrylcholinesterase (BChE, E.C. 3.1.1.8, from equine serum), acetylthiocholine iodide (ATCI), and 5,5-dithiobis-2-nitrobenzoic acid (DTNB) were purchased from Sigma-Aldrich. Potassium dihydrogen phosphate, dipotassium hydrogen phosphate, potassium hydroxide, and sodium hydrogen carbonate were obtained from Fluka. Solvents for the extraction and column chromatography (CC) were of technical grade and redistilled before use. Deuterated solvents (100 atom % D) were obtained from Sigma-Aldrich.
(§2) In vitro anti-ChEI activity was performed against acetylcholinesterase (AChE, E.C. 3.1.1.7, Type V-S, lyophilized powder, from electric eel, 1000 units) and butyrylcholinesterase (BChE, E.C. 3.1.1.8, from equine serum) using the modified Ellman's method. […] Each well consisted of 50 μL potassium phosphate buffer (KH2PO4/K2HPO4, 0.1 M, pH 8), 25 μL prepared sample as described above, and AChE enzyme (25 μL) with a final concentration of 0.22 units/mL in the buffer. They were preincubated for 15 min at room temperature, and then, 125 μL DTNB (3 mM in buffer) was added to the mixture. […] In parallel, a blank containing all components without enzyme was used in order to account for the nonenzymatic reaction. […] The IC50 values were determined graphically from log concentration vs. % of inhibition curves. All experiments were performed in triplicate. BChE inhibition assay was performed in the same method.

Assay [3] has as its target T2, butyrylcholinesterase (BChE, E.C. 3.1.1.8) (Equus caballus, UniProt P81908).
T2 construct: butyrylcholinesterase (BChE, E.C. 3.1.1.8, from equine serum); purchased Sigma-Aldrich; host or cells: equine serum
As to the kind of experiment: biochemical.
Text: as §1, §2

Assay [4] relates to acetylcholinesterase. To be noted: cited from earlier work.
Assay [5] deals with BChE. Also noted: method as in PMID 24354178. The conditions noted are these: cited from earlier work.

Where two headings read alike, the source gives them in different places. Bounds are passed on as bounds.

T1 sequence (O42275 24-633): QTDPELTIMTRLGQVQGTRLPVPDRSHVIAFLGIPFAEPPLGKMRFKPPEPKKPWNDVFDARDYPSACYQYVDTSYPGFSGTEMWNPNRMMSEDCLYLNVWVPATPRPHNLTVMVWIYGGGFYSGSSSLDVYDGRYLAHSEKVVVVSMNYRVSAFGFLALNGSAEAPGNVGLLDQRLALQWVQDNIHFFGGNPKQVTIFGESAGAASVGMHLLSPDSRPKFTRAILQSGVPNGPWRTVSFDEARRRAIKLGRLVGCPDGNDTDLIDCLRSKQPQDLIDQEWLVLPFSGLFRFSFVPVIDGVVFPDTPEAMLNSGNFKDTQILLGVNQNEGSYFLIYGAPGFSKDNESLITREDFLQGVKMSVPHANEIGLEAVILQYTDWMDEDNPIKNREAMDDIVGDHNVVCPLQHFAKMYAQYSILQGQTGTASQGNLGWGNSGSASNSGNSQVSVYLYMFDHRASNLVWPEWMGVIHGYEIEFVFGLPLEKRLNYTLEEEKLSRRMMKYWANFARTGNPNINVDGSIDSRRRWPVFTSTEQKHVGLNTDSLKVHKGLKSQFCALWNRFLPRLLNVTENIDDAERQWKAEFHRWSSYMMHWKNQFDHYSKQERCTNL
T2 sequence (P81908 whole entry): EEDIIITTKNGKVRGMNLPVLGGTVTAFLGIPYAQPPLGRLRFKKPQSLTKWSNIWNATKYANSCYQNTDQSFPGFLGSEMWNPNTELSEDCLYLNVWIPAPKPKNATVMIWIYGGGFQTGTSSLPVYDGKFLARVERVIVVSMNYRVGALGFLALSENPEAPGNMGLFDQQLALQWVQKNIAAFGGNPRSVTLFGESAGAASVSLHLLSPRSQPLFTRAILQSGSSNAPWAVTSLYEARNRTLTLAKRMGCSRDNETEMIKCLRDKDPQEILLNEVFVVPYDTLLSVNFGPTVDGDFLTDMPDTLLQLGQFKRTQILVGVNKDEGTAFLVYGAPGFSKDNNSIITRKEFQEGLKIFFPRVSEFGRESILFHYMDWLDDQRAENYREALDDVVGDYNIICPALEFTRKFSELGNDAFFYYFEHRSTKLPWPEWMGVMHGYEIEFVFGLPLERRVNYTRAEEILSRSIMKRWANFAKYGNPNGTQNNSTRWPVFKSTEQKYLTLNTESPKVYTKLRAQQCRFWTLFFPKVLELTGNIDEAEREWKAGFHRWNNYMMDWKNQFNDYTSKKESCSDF

Consider `COc1ccc(O)c(C(C)(C)C)c1` [BHA, butylated hydroxyanisole], for which, in assay [1], the “DPPH free radical scavenging IC50” value stood at 3.79 ± 0.37 µg/mL. Usually IC50 stands for the midpoint of a concentration-inhibition curve. On to `CC[C@H](CC[C@@H](C)[C@H]1CC[C@H]2[C@@H]3CC=C4C[C@@H](O)CC[C@]4(C)[C@H]3CC[C@]12C)C(C)C` [compound 1, β-Sitosterol], for which the IC50 in assay [2] and in assay [3] was over 100 µM in each case. On to `CC(=O)O[C@H]1CC[C@@]2(C)C(CC[C@]3(C)C2CC=C2C4CC(C)(C)CC[C@]4(C(=O)O)CC[C@]23C)C1(C)C` (stereo partly drawn) [compound 2, 3-O-β-Acetyloleanolic acid], for which the half-maximal inhibitory concentration (IC50) in assay [2] was over 100 µM; in assay [3], 77.13 ± 0.01 µM. For `CC1(C)CC[C@]2(C(=O)O)CC[C@]3(C)C(=CCC4[C@@]5(C)CC[C@H](OC(=O)/C=C/c6ccc(O)cc6)C(C)(C)C5CC[C@]43C)C2C1` (stereo partly drawn) [compound 3, 3-O-(Z)-Coumaroyl oleanolic acid], the IC50 in assay [2] (isolated compounds, mean ± SD, three independent experiments, read-out: AChE IC50) was over 100 µM; in assay [3] (isolated compounds, mean ± SD, three independent experiments, read-out: BChE IC50) it was over 100 µM.

Take `C=C(C)[C@@H]1CC[C@]2(C(=O)O)CC[C@]3(C)[C@H](CC[C@@H]4[C@@]5(C)CC[C@H](O)C(C)(C)[C@@H]5CC[C@]43C)[C@@H]12` [compound 4, Betulinic acid]: the IC50 in assay [2] and in assay [3] was over 100 µM each time. Regarding `CC1(C)CC[C@]2(C(=O)O)CC[C@]3(C)C(=CC[C@@H]4[C@@]5(C)CC[C@H](O)C(C)(C)[C@@H]5CC[C@]43C)[C@@H]2C1` [compound 5, Oleanolic acid], the IC50 in assay [3] (BChE IC50, isolated compounds, mean ± SD, three independent experiments) was 72.2 ± 0.42 µM. For the compound `COc1ccc2c3c1O[C@H]1C[C@@H](O)C=C[C@@]31CCN(C)C2` [galantamine], the “inhibitory activity against acetylcholinesterase” value in assay [4] is listed as “significant inhibitory activity”. For the compound `COc1ccc(C(C)=O)c(O)c1` [paeonol], the BChE inhibitory activity entry in assay [5] is listed as “selective BChE inhibitory activity”. As for `CNC(=O)Oc1ccc2c(c1)[C@]1(C)CCN(C)[C@@H]1N2C` [physostigmine], in assay [4], the “inhibitory activity against acetylcholinesterase” value is on record as “significant inhibitory activity”. Turning to `CN1CC[C@@]23C=C[C@H](O)C[C@@H]2Oc2c(O)ccc(c23)C1` [sanguinine], in assay [4], the “inhibitory activity against acetylcholinesterase” value was “significant inhibitory activity”. For the compound hydroperoxy-24-vinylcholesterol, in assay [5], the BChE inhibitory activity result is given as “selective BChE inhibitory activity”.
